Laboratory results reported in EP1353939B1, “TETRAPEPTIDE REGULATING PROSTATE FUNCTIONS AND ITS COMPOSITIONS AND USES” (Sankt-Peterburgskaya Obschestvennaya Organizatsia …, priority 2001, dated 2004).
Like-named read-outs stand apart in the source and are kept apart here. Marks after values point to notes of the source that are not given here.

Tests used:
[1] = system: urinary bladder explants; details: 20 ng/ml, third day of cultivation
Protocol: The experiments were carried out in 45 urinary bladder fragments of 10-11-days old chicken embryos. The nutrient medium for the explant cultivation included 35 % of Eagle's solution, 25 % of foetal calf serum, 35 % of Hanks' solution, 5 % of chicken embryonic extract and was added glucose (0.6 %), insulin (0.5 unit/ml), penicillin (100 unit/ml) and glutamine (2 mM). The urinary bladder fragments were placed in this medium and cultivated in Petri's dishes in a thermostat at 36.7°C for 48 hours. […] Square index (SI) was taken for a biological activity criterion and calculated as a correlation of the total explant square (including the growth zone) to the initial square of a urinary bladder fragment. The SI values were expressed per cent, the control SI value - taken for 100 %.

[2] = system: chronic bacterial prostatitis
Protocol: The investigation was performed on 41 white mongrel male rats weighing on average 230 g. Bacterial prostatitis was induced in the rats by transurethral introduction of enterotoxigenic E.coli suspension K-2935 (01: K1: H-). A glycerine-lubricated catheter was inserted into the animals' urethra under a light ether narcosis after treating the external urethra opening with 70 % alcohol. 0.2 ml of bacterial suspension (10^9 colony-forming units per ml) was instilled via catheter with a syringe. Control animals were injected with 0.2 ml of 0.9 % natural saline solution through the catheter. […] The injections were performed daily for 10 days. The control groups included intact animals, animals with untreated chronic prostatitis and those treated with injections of 0.9 % natural saline solution applied by the same plan.
All the rats were euthanasised by decapitation on the 70th day of the experiment. The animals were subjected to complete autopsy. Their testes and epididymes, prostate, seminal vesicles, bulbourethral glands, urinary bladder, kidneys with ureters and other intrinsic organs were examined. For histology the ventral segment of the prostate was fixed in 10 % neutral formalin and - after a standard processing with a series of solvents - embedded in paraffin. 5-7-µm thin tissue sections were stained with haematoxylin-eosin.
The degree of prostatitis manifestation throughout the groups was assessed according to the below 5-point scale: • 1 point - traces of prostatitis (small foci of fibrosis, interstitial lymphocytic and histiocytic infiltration); • 2 points - foci of chronic prostatitis with inflammatory infiltration (basically, interstitial one) occupying less than ¼ of the gland section; • 3 points - prostatitis foci with large inflammatory infiltrates surrounding the ducts, acini and blood vessels, with leukocytic conglomerations in the glandular lumens, embracing ¼ - ½ of the gland section; • 4 points - expressed prostatitis covering ½ - ¾ of the gland section; • 5 points - strongly expressed prostatitis affecting over ¾ of the gland section.
The prostate sites were also used for electron microscopic examination and tests on the content of zinc, which makes a part of compositions with anti-microbial activity.

[3] = system: processes of free radical oxidation; details: 0.1 µg per injection s.c. for 10 days
Protocol: The animals were subcutaneously administered with 0.1 µg of the tetrapeptide per injection for 10 days. The controls were similarly injected with 0.9 % natural saline solution. The rats were euthanasised on the next day after the last introduction of the tetrapeptide.
Afterwards, samples of the brain and liver tissues and blood serum were prepared and peroxide lipid oxidation (PLO) intensity in them was studied by the content of diene conjugates and Schiff's bases. The activity of glutathione peroxidase and superoxide dismutase was defined as well by the method of suppressing nitroblue tetrasolium oxidation with biological material.

“lysyl-glutamyl-aspartyl-proline [Lys-Glu-Asp-Pro tetrapeptide]” was tested, and the “increase in the explant SI as compared to the control value” [1] was 23%, the “positive dynamics of inflammatory processes in the prostate” value ([2]; 0.1 µg per injection s.c. daily for 10 days) was 7 cases out of 11 and the “Degree of prostatitis in points Per rat in the group” value ([2]; 0.1 µg per injection s.c. daily for 10 days, from day 45 after infection, 5-point scale) was 1.81 ± 0.09 points. The “Degree of prostatitis in points Per prostatitis-affected rat” value ([2]; 0.1 µg per injection s.c. daily for 10 days, 5-point scale) was 2.86* points, the “mean concentration of zinc in the prostate tissue” value ([2]; after application of the tetrapeptide (Figure 2)) was “decreased” and the “Number of rats in the group Prostatitis -affected” value ([2]; of 11 rats in total, 0.1 µg per injection s.c. daily for 10 days) was 7. The Diene conjugates ([3]; Blood serum) was 5.28 ± 0.33 nmol/mL, the Glutathione peroxidase ([3]; Blood serum) was 2.85 ± 0.06 mmol of GlSH/min/mg of protein and the “Schiff's bases” value ([3]; Blood serum) was 17.40 ± 1.54 conv. unit/ml. For the same substance, the Superoxide dismutase ([3]; Blood serum) was 0.826 ± 0.060 conv. unit/mg of protein, the Diene conjugates ([3]; Brain) was 46.14 ± 2.91 mnol/ml and the Glutathione peroxidase ([3]; Brain) was 50.7±0.2 mmole of GlSH/min/mg of protein. For the same substance, the “Schiff's bases” value ([3]; Brain) was 237.3 ± 17.8 conv. unit/ml, the Superoxide dismutase ([3]; Brain) was 26.7 ± 3.0 conv. unit/mg of protein and the Diene conjugates ([3]; Liver) was 44.76 ± 2.48 nmol/mL. For the same substance, the Glutathione peroxidase ([3]; Liver) was 798.0±29.1 mmol of GlSH/min/mg of protein, the “Schiff's bases” value ([3]; Liver) was 556.5 ±37.6 conv. unit/ml and the Superoxide dismutase ([3]; Liver) was 54.1 ± 7.9 conv. unit/mg of protein.
